Laboratory results as given in ChEMBL document CHEMBL5233210, “Pyrazolone structural motif in medicinal chemistry: Retrospect and prospect” (Eur J Med Chem, 2020).
Values after ≈ are worked out from the molar mass of the structure shown.

Legend:
Rattus norvegicus [1] = organism: Rattus norvegicus; assay: Anticonvulsant activity in tryptamine seizure potentiated Wistar rat; type: functional
[2] = target: Cholinesterase (Equus caballus) (UniProt P81908); assay: Inhibition of equine serum BChE at 10^-3 M relative to control; type: cell-free; conditions: dose 1.0 10^-3M
Sequence of Cholinesterase (Equus caballus) (P81908 whole entry): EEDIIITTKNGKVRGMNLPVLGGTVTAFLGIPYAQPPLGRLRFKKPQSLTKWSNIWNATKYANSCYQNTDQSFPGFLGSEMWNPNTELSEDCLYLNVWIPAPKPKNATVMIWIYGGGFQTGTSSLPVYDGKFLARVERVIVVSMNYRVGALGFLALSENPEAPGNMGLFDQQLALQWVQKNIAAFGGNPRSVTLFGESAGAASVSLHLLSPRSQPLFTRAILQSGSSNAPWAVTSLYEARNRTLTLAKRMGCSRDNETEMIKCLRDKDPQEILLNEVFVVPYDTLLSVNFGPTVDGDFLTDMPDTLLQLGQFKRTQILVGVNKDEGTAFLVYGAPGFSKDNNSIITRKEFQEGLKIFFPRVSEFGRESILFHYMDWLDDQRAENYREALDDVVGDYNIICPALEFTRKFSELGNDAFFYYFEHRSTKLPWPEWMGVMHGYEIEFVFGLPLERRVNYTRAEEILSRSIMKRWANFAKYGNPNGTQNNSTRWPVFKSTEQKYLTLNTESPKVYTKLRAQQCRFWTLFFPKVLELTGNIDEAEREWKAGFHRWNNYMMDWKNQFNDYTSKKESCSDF

[3] = target: T1, Amine oxidase [flavin-containing] A (Homo sapiens, UniProt P21397); assay: Inhibition of MAO-A (unknown origin) relative to control
T1 sequence (P21397 whole entry): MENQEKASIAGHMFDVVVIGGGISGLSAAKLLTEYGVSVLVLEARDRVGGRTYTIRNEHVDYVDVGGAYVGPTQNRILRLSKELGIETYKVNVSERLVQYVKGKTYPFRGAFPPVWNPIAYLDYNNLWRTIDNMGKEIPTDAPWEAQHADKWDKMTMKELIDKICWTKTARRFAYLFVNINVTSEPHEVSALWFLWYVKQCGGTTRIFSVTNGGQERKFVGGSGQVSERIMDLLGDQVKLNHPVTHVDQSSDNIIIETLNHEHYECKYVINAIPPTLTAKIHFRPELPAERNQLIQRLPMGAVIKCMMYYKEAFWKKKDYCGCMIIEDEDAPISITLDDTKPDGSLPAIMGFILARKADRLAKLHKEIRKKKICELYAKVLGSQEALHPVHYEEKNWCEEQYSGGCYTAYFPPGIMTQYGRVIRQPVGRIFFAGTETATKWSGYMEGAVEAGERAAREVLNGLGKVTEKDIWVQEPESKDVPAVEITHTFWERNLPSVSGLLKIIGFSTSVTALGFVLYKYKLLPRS

[4] = target: T2, Amine oxidase [flavin-containing] B (Homo sapiens, UniProt P27338); assay: Inhibition of MAO-B (unknown origin)
T2 sequence (P27338 whole entry): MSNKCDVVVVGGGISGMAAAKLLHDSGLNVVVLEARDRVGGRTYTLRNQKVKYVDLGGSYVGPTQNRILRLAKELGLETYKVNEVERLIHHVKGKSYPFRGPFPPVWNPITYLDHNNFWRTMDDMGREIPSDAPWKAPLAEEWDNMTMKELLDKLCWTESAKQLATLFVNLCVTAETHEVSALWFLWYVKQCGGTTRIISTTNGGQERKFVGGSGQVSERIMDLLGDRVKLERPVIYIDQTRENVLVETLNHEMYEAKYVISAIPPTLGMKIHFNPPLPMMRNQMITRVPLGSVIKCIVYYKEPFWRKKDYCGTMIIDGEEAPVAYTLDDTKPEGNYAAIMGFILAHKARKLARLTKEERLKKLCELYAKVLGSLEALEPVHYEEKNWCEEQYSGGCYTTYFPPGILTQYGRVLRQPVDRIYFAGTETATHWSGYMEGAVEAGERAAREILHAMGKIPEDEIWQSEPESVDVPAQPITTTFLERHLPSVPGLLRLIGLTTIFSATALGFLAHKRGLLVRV

[5] = target: T1, Amine oxidase [flavin-containing] A; assay: Inhibition of human MAO-A
[6] = target: T2, Amine oxidase [flavin-containing] B; assay: Inhibition of human MAO-B
Homo sapiens = organism: Homo sapiens; assay: Selectivity index, ratio of Ki for human MAO-B to Ki for human MAO-A
[7] = target: Amine oxidase [flavin-containing] A (Rattus norvegicus, UniProt P21396); assay: Inhibition of rat brain synaptosome MAO-A; type: subcellular
Sequence of Amine oxidase [flavin-containing] A (Rattus norvegicus, UniProt P21396) (P21396 whole entry): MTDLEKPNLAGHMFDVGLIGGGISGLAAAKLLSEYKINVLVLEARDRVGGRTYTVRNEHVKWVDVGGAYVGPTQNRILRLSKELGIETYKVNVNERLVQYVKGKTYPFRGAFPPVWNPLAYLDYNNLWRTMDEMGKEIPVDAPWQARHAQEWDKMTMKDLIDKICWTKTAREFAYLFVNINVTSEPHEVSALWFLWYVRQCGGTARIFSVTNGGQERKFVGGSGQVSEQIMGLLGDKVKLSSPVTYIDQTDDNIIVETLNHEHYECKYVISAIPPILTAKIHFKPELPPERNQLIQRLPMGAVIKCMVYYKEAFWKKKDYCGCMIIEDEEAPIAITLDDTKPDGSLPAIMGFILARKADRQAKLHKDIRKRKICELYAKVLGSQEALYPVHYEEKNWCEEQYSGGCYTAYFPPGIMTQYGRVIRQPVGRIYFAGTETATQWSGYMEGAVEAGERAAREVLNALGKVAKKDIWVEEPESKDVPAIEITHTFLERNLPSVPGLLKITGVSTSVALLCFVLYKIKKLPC

[8] = target: Amine oxidase [flavin-containing] B (Rattus norvegicus, UniProt P19643); assay: Inhibition of rat brain synaptosome MAO-B; type: subcellular
Sequence of Amine oxidase [flavin-containing] B (Rattus norvegicus, UniProt P19643) (P19643 whole entry): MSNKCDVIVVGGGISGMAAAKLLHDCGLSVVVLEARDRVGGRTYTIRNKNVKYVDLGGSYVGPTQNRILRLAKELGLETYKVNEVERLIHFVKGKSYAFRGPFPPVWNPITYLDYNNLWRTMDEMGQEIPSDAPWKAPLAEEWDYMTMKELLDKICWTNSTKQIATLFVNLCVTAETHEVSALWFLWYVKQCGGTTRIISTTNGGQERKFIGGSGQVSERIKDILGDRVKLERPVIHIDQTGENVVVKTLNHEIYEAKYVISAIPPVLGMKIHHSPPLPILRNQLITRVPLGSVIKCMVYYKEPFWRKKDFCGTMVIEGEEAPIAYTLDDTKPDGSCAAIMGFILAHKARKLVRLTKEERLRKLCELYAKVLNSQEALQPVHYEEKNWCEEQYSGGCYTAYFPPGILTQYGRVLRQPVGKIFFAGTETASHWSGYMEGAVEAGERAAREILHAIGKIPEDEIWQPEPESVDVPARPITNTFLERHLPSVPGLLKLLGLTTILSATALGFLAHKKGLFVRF

Mus musculus [9] = organism: Mus musculus; assay: Antidepressant activity in Swiss albino mouse assessed as change in immobility by forced swim test; type: functional
Mus musculus [10] = organism: Mus musculus; assay: Antidepressant activity in Swiss albino mouse assessed as decrease in immobility time by forced swim test (reference value: 203.3 sec); type: functional
Mus musculus [11] = organism: Mus musculus; assay: Antidepressant activity in Swiss albino mouse assessed as decrease in immobility time by tail suspension test (reference value: 185.8 sec); type: functional
Mus musculus [12] = organism: Mus musculus; assay: Antidepressant activity in Swiss albino mouse assessed as change in immobility by tail suspension test; type: functional
MCF7 = assay: Cytotoxicity against human MCF7 cells; type: functional, cell-based
Ehrlich [13] = assay: Cytotoxicity against mouse Ehrlich ascites cells assessed as dead cells at 100 ug/ml; type: functional; conditions: dose 100 µg/ml
Ehrlich [14] = assay: Cytotoxicity against mouse Ehrlich ascites cells assessed as dead cells at 500 ug/ml; type: functional; conditions: dose 500 µg/ml
Ehrlich [15] = assay: Cytotoxicity against mouse Ehrlich ascites cells assessed as dead cells at 25 ug/ml; type: functional; conditions: dose 25 µg/ml
HepG2 = assay: Cytotoxicity against human HepG2 cells; type: functional, cell-based
PC-3 = assay: Cytotoxicity against human PC-3 cells; type: functional, cell-based
Rattus norvegicus [16] = assay: Antiinflammatory activity against rat assessed as inhibition of carrageenan-induced paw edema relative to control; type: functional; design: concentration or dose not given beside the values
[17] = target: T3, Prostaglandin G/H synthase 1 (Ovis aries, UniProt P05979); assay: Inhibition of ovine COX-1
T3 sequence (P05979 whole entry): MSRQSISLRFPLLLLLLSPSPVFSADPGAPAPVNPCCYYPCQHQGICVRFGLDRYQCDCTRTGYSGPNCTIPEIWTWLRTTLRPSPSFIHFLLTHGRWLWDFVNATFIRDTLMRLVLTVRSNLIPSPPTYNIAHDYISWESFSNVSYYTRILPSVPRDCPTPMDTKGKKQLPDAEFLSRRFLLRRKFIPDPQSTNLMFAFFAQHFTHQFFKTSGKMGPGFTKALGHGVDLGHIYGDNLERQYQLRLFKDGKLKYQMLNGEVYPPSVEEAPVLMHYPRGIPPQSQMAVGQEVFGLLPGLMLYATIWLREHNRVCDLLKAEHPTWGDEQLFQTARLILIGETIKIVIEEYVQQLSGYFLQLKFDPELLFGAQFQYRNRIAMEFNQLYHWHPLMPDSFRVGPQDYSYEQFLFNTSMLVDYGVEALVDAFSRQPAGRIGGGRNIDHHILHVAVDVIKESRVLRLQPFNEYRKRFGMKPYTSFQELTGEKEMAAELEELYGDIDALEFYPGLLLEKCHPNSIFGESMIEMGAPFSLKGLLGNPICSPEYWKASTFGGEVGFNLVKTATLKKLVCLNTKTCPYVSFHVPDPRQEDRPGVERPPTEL

[18] = target: T4, Prostaglandin G/H synthase 2 (Ovis aries, UniProt P79208); assay: Inhibition of ovine COX-2
T4 sequence (P79208 whole entry): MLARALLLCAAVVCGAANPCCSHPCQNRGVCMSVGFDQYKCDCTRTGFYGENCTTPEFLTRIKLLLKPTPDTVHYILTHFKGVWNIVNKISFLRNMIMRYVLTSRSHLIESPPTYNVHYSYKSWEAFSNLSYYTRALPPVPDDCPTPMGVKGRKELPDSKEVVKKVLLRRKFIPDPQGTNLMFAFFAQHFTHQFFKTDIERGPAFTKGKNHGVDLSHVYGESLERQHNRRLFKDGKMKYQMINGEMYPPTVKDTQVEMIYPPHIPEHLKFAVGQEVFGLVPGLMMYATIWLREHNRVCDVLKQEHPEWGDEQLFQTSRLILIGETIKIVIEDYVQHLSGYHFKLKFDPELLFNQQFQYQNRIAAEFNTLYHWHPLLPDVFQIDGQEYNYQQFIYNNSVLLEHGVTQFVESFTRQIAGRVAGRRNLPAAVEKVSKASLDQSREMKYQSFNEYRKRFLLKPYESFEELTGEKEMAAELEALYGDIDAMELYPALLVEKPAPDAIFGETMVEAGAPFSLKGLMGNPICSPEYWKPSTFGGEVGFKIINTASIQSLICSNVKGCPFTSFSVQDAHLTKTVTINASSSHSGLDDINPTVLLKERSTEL

Ovis aries = organism: Ovis aries; assay: Selectivity index, ratio of IC50 for ovine COX-1 to IC50 for ovine COX-2
Rattus norvegicus [19] = assay: Antiinflammatory activity against rat assessed as inhibition of carrageenan-induced paw edema; type: functional
PC-12 = assay: Anti amyotrophic lateral sclerosis activity in rat PC-12 cells assessed as decrease in G93A SOD1 aggregate formation relative to control; type: functional; design: scale not given: the % may be the effect or the level left
Mus musculus [20] = organism: Mus musculus; assay: Anticonvulsant activity in mouse by MES test; type: functional
[21] = target: Glycogen synthase kinase-3 beta (Homo sapiens, UniProt P49841); assay: Inhibition of human GSK-3beta
Sequence of Glycogen synthase kinase-3 beta (P49841 whole entry): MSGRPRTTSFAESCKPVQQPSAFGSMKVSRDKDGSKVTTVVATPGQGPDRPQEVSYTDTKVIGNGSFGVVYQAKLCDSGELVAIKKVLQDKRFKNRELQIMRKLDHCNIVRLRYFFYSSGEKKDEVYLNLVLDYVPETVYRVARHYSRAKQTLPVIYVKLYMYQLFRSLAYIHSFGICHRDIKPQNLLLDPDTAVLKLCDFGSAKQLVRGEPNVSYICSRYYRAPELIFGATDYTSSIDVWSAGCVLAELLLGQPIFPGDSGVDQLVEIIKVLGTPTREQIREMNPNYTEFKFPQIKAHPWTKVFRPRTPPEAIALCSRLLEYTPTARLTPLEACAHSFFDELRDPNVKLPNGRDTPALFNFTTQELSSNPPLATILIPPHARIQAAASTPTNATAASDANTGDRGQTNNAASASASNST

Escherichia coli = assay: Antibacterial activity against Escherichia coli assessed as diameter of inhibition zone at 100 ppm; type: functional; conditions: read-out: DIZ
Bacillus subtilis = assay: Antibacterial activity against Bacillus subtilis assessed as diameter of inhibition zone at 100 ppm; type: functional; conditions: read-out: DIZ
Pseudomonas aeruginosa = assay: Antibacterial activity against Pseudomonas aeruginosa assessed as diameter of inhibition zone at 100 ppm; type: functional; conditions: read-out: DIZ
Aspergillus niger = assay: Antifungal activity against Aspergillus niger assessed as diameter of inhibition zone at 100 ppm; type: functional; conditions: read-out: DIZ

Q: `C#CCN(C)[C@H](C)Cc1ccccc1` [SELEGILINE] was tested. Which ED50 (Rattus norvegicus [1]) did it give?
A: 0.3 µM

Q: Which results are given for `Cc1c(/N=C/c2ccc(OCCCN(C)C)cc2)c(=O)n(-c2ccccc2)n1C`?
A: inhibition [2]: 35.3%; inhibition (INH) [3]: 38.1%; IC50 [4]: 49 nM

Q: How did the Ki [5] turn out when `Cc1c(-c2cc(C#N)c(N)o2)c(=O)n(-c2ccccc2)n1C` was run?
A: 0.346 nM

Q: What about the Ki [6] of the same molecule?
A: 766 nM

Q: What about the Ratio Ki (Homo sapiens) of the same molecule?
A: 2210

Q: What about the IC50 [7] of the same molecule?
A: 7.99 nM

Q: And the IC50 [8]?
A: 45.4 nM

Q: How did the Activity (Mus musculus [9]) turn out when `CC1=NN(C(=O)c2ccc3ccccc3c2)C(=O)C1/N=N/c1ccc(Cl)cc1Cl` (configuration not stated) was run?
A: -51.9%

Q: And the Time (Mus musculus [10])?
A: 97.7 s

Q: And the Time (Mus musculus [11])?
A: 114.3 s

Q: What about the Activity (Mus musculus [12]) of the same molecule?
A: -38.4%

Q: Which results are given for `O=c1[nH]cc(F)c(=O)[nH]1` [FLUOROURACIL]?
A: IC50 (MCF7): 5.5 µg/mL (≈ 42.3 µM); Activity (Ehrlich [13]): 97.3%; Activity (Ehrlich [14]): 68%; Activity (Ehrlich [15]): 38.6%; IC50 (HepG2): 7.9 µg/mL (≈ 60.7 µM); IC50 (PC-3): 8.3 µg/mL (≈ 63.8 µM)

Q: For `NS(=O)(=O)c1ccc(N2N=C/C(=N/Nc3ccc(C(=O)O)cc3)C2=O)cc1`, which Activity (Rattus norvegicus [16]) is on record?
A: 72.72%

Q: What about the IC50 [17] of the same molecule?
A: 3.81 µM

Q: And the IC50 [18]?
A: 720 nM

Q: And the Ratio IC50 (Ovis aries)?
A: 5.29

Q: What about the ED50 (Rattus norvegicus [19]) of the same molecule?
A: 44 µmol/kg

Q: What does the source list for `NS(=O)(=O)c1ccc(N/N=C2/C=NN(c3ccccc3C(=O)O)C2=O)cc1`?
A: IC50 [17]: 3.76 µM; IC50 [18]: 660 nM; Ratio IC50 (Ovis aries): 5.69

Q: For `C[C@@H]1C[C@H]2O[C@@H]2/C=C\C=C\C(=O)Cc2c(Cl)c(O)cc(O)c2C(=O)O1` [RADICICOL], which Activity (PC-12) is on record?
A: 80%

Q: How did the Activity (Mus musculus [20]) turn out when `CC1=NN(c2ccccc2)C(=O)/C1=C\c1cn(-c2ccccc2)nc1-c1ccc(Cl)c(Cl)c1` was run?
A: 79.76%

Q: For `Cn1cc(-c2[nH][nH]c(=O)c2-c2cn(C)c3ccccc23)c2ccccc21`, which IC50 [21] is on record?
A: 34 nM

Q: Which results are given for `NS(=O)(=O)c1ccc(N2N=C/C(=N/Nc3ccccc3C(=O)O)C2=O)cc1`?
A: IC50 [17]: 4.08 µM; IC50 [18]: 770 nM; Ratio IC50 (Ovis aries): 5.29

Q: Which results are given for `Nc1cc(=O)n(-c2ccc([N+](=O)[O-])cc2[N+](=O)[O-])[nH]1`?
A: zone of inhibition at 100 µg/mL (Escherichia coli): 15.3 mm; zone of inhibition at 100 µg/mL (Bacillus subtilis): 18.1 mm; zone of inhibition at 100 µg/mL (Pseudomonas aeruginosa): 17.4 mm; zone of inhibition at 100 µg/mL (Aspergillus niger): 15.2 mm
